Data published in patent US10913727B2, “Modulators of the integrated stress pathway” (Calico Life Sciences LLC, priority 2016, dated 2021).
pEC50: −log10 of the molar value.

These compounds were tested on HEK293T cells carrying the ATF4 luciferase reporter (assay: ATF4-Luc assay, in vitro model of Vanishing Cell White Matter Disease (VWMD)). Settings: Homo sapiens, HEK-293T, 1 μg/mL tunicamycin, 7 hours, One Glo luminescence.
Format: cell-based
Procedure, shortened: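 Stable HEK293T line with human ATF4 5′-UTR–firefly luciferase reporter treated with 1 μg/mL tunicamycin plus 200 nM compound for 7 h. Luminescence read; EC50 derived.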

SMILES	pEC50
O=C(COc1ccc(Cl)c(F)c1)NC12CC(NC(=O)c3ccsc3)(C1)C2 [Compound 306, N-{3-[2-(4-chloro-3-fluorophenoxy)acetamido]bicyclo[1.1.1]pentan-1-yl}thiophene-3-carboxamide]	6.00 to 6.60
O=C(COc1ccc(Cl)cc1)NC12CC(Nc3noc(-c4ccc(Cl)cc4)n3)(C1)C2 [Compound 287, 2-(4-chlorophenoxy)-N-(3-{[5-(4-chlorophenyl)-1,2,4-oxadiazol-3-yl]amino}bicyclo[1.1.1]pentan-1-yl)acetamide]	6.60 to 7.30
O=C(COc1ccc(Cl)c(Cl)c1)NC12CC(NC(=O)c3cnc(C4CC4)o3)(C1)C2 [Compound 614, 2-cyclopropyl-N-{3-[2-(3,4-dichlorophenoxy)acetamido]bicyclo[1.1.1]pentan-1-yl}-1,3-oxazole-5-carboxamide]	6.60 to 7.30
Cc1nn(C)cc1-c1cc(C(=O)NC23CC(NC(=O)COc4ccc(Cl)c(F)c4)(C2)C3)no1 [Compound 865, N-{3-[2-(4-chloro-3-fluorophenoxy)acetamido]bicyclo[1.1.1]pentan-1-yl}-5-(1,3-dimethyl-1H-pyrazol-4-yl)-1,2-oxazole-3-carboxamide]	5.70 to 6.00
Cc1cnc(C(=O)NC23CC(NC(=O)COc4ccc(Cl)c(F)c4)(C2)C3)nc1 [Compound 268, N-{3-[2-(4-chloro-3-fluorophenoxy)acetamido]bicyclo[1.1.1]pentan-1-yl}-5-methylpyrimidine-2-carboxamide]	6.60 to 7.30
CCc1ccc(C(=O)NC23CC(NC(=O)COc4ccc(Cl)c(F)c4)(C2)C3)nc1 [Compound 145, N-{3-[2-(4-chloro-3-fluorophenoxy)acetamido]bicyclo[1.1.1]pentan-1-yl}-5-ethylpyridine-2-carboxamide]	6.60 to 7.30
CCc1csc(C(=O)NC23CC(NC(=O)COc4ccc(Cl)c(F)c4)(C2)C3)n1 [Compound 919, N-{3-[2-(4-chloro-3-fluorophenoxy)acetamido]bicyclo[1.1.1]pentan-1-yl}-4-ethyl-1,3-thiazole-2-carboxamide]	> 7.30
O=C(COc1ccc(Cl)c(F)c1)NC12CCC(NC(=O)c3ccc(-c4ccc(F)cc4)cn3)(CC1)CC2O (stereo not drawn) [Compound 939, N-{4-[2-(4-chloro-3-fluorophenoxy)acetamido]-3-hydroxybicyclo[2.2.2]octan-1-yl}-5-(4-fluorophenyl)pyridine-2-carboxamide]	< 5.70
CC(C)(C)OC(=O)NCc1ccnc(C(=O)NC23CC(NC(=O)COc4ccc(Cl)c(Cl)c4)(C2)C3)c1 [Compound 580, tert-butyl {[2-({3-[2-(3,4-dichlorophenoxy)acetamido]bicyclo[1.1.1]pentan-1-yl}carbamoyl)pyridin-4-yl]methyl}carbamate]	< 5.70
CCc1nc(C)c(C(=O)NC23CC(NC(=O)COc4ccc(Cl)c(F)c4)(C2)C3)o1 [Compound 906, N-{3-[2-(4-chloro-3-fluorophenoxy)acetamido]bicyclo[1.1.1]pentan-1-yl}-2-ethyl-4-methyl-1,3-oxazole-5-carboxamide]	6.00 to 6.60
Cn1nc(C(F)(F)F)cc1C(=O)NC12CC(NC(=O)COc3ccc(Cl)c(F)c3)(C1)C2 [Compound 582, N-{3-[2-(4-chloro-3-fluorophenoxy)acetamido]bicyclo[1.1.1]pentan-1-yl}-1-methyl-3-(trifluoromethyl)-1H-pyrazole-5-carboxamide]	6.60 to 7.30
CN(C(=O)COc1ccc(Cl)c(F)c1)C12CC(N(C)C(=O)c3cnc(C(F)F)cn3)(C1)C2 [Compound 362, N-(3-{[(4-chloro-3-fluorophenoxy)acetyl](methyl)amino}bicyclo[1.1.1]pentan-1-yl)-5-(difluoromethyl)-N-methylpyrazine-2-carboxamide]	< 5.70
Cn1ccc(C(=O)NC23CC(NC(=O)COc4ccc(Cl)c(F)c4)(C2)C3)n1 [Compound 389, N-{3-[2-(4-chloro-3-fluorophenoxy)acetamido]bicyclo[1.1.1]pentan-1-yl}-1-methyl-1H-pyrazole-3-carboxamide]	6.00 to 6.60
Cc1cc(C)nc(C(=O)NC23CC(NC(=O)COc4ccc(Cl)c(F)c4)(C2)C3)c1 [Compound 889, N-{3-[2-(4-chloro-3-fluorophenoxy)acetamido]bicyclo[1.1.1]pentan-1-yl}-4,6-dimethylpyridine-2-carboxamide]	5.70 to 6.00
COc1cc(OC)cc(C(=O)NC23CC(NC(=O)COc4ccc(Cl)c(F)c4)(C2)C3)c1 [Compound 303, N-{3-[2-(4-chloro-3-fluorophenoxy)acetamido]bicyclo[1.1.1]pentan-1-yl}-3,5-dimethoxybenzamide]	5.70 to 6.00
O=C(COc1ccc(Cl)c(F)c1)NC12CCC(NC(=O)c3ccccc3F)(CC1)C[C@@H]2O [Compound 560, N-{(3S)-4-[2-(4-chloro-3-fluorophenoxy)acetamido]-3-hydroxybicyclo[2.2.2]octan-1-yl}-2-fluorobenzamide]	6.60 to 7.30
O=C(COc1ccc(Cl)c(F)c1)NC12CC(NC(=O)c3cnc(C4CC4)o3)(C1)C2 [Compound 583, N-{3-[2-(4-chloro-3-fluorophenoxy)acetamido]bicyclo[1.1.1]pentan-1-yl}-2-cyclopropyl-1,3-oxazole-5-carboxamide]	6.60 to 7.30
CC(C)(C)OC(=O)N1CCC=C(c2ncc(C(=O)NC34CC(NC(=O)COc5ccc(Cl)c(F)c5)(C3)C4)o2)C1 [Compound 150, tert-butyl 5-[5-({3-[2-(4-chloro-3-fluorophenoxy)acetamido]bicyclo[1.1.1]pentan-1-yl}carbamoyl)-1,3-oxazol-2-yl]-3,6-dihydropyridine-1(2H)-carboxylate]	6.60 to 7.30
O=C(COc1ccc(Cl)c(F)c1)NC12CC(NC(=O)c3ccc4nccnc4c3)(C1)C2 [Compound 766, N-{3-[2-(4-chloro-3-fluorophenoxy)acetamido]bicyclo[1.1.1]pentan-1-yl}quinoxaline-6-carboxamide]	< 5.70
CC(C)(O)c1ccc(C(=O)NC23CC(NC(=O)COc4ccc(Cl)c(F)c4)(C2)C3)cc1 [Compound 208, N-{3-[2-(4-chloro-3-fluorophenoxy)acetamido]bicyclo[1.1.1]pentan-1-yl}-4-(2-hydroxypropan-2-yl)benzamide]	5.70 to 6.00
O=C(COc1ccc(Cl)c(F)c1)NC12CCC(NC(=O)c3ccc(F)cn3)(CC1)C(O)C2 (stereo not drawn) [Compound 168, N-{4-[2-(4-chloro-3-fluorophenoxy)acetamido]-2-hydroxybicyclo[2.2.2]octan-1-yl}-5-fluoropyridine-2-carboxamide]	6.60 to 7.30
Cc1nocc1C(=O)NC12CCC(NC(=O)COc3ccc(Cl)c(F)c3)(CC1)C(O)C2 (stereo not drawn) [Compound 605, N-{4-[2-(4-chloro-3-fluorophenoxy)acetamido]-3-hydroxybicyclo[2.2.2]octan-1-yl}-3-methyl-1,2-oxazole-4-carboxamide]	< 5.70
Cc1nc(C(=O)NC23CCC(NC(=O)COc4ccc(Cl)c(F)c4)(CC2)C(O)C3)ccc1F (stereo not drawn) [Compound 917, N-{4-[2-(4-chloro-3-fluorophenoxy)acetamido]-3-hydroxybicyclo[2.2.2]octan-1-yl}-5-fluoro-6-methylpyridine-2-carboxamide]	6.60 to 7.30
O=C(COc1ccc(Cl)c(F)c1)NC12CCC(NC(=O)c3ccc(C(F)F)s3)(CC1)CC2O (stereo not drawn) [Compound 623, N-{4-[2-(4-chloro-3-fluorophenoxy)acetamido]-3-hydroxybicyclo[2.2.2]octan-1-yl}-5-(difluoromethyl)thiophene-2-carboxamide]	6.60 to 7.30
